Counter-ions that a name gives are not always drawn. Like-named read-outs stand apart in the source and are kept apart here.
What was measured:
RGS4(WT) = biological target: T1, RGS4(WT) (Rattus norvegicus, UniProt P49799); assay: Malachite green steady-state GAP assay, RGS4(WT); format: biochemical; details: for Mean absorbance at 642 nm, positive control: 10 µM final compound
T1 construct: fused to the N-terminus of an RGS4 construct containing amino acids 51–205; 10× His tag (N, cleaved yes); made in house; host or cells: E. coli BL21-DE3
T1 sequence (P49799 51-205): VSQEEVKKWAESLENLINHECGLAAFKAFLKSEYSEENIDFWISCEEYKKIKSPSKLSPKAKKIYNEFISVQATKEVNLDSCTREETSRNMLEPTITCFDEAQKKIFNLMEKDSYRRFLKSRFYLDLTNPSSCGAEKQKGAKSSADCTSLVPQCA
Protocol: Stock solutions of each of the 3 components of the developing solution were prepared, which are stable for long-term storage. Malachite solution was prepared by first diluting concentrated sulfuric acid 1∶5 in distilled water. Once the solution cooled to 25°C, malachite solution was prepared by dissolving 0.44 g of malachite green oxalate (Alfa Aesar; Ward Hill, MA) in 360 mL diluted acid and stored at 25°C. Molybdate solution, containing 7.5% ammonium molybdate tetrahydrate (Alfa Aesar; Ward Hill, MA), was prepared in distilled water and stored at 4°C. Tween-20 solution, used to maintain solubility of the phosphate-molybdate-malachite complex, was prepared as 11% (v/v) Tween-20 in distilled water. On the day of use, 2.5 mL molybdate solution and 0.2 mL Tween-20 solution were added to 10 mL of malachite solution and mixed quickly to avoid precipitation of malachite. The final ratio of the Developing Solution (DS) was 50∶12.5∶1 (malachite:molybdate:Tween-20). The peak absorbance was determined by a 2 nm step wavelength scan, using 10 µM Na3PO4 at pH 7.5 as the negative control.
The malachite green assay involves 5 components, with a 1 min spin at 100×g between each addition. For time-course experiments, the first component was 10 µL Malachite Green Assay Buffer (MGB; 50 mM HEPES at pH 7.5, 100 mM NaCl, 5 mM EDTA, 10 mM MgCl2, 0.01% lubrol) into a clear 384-well plate (ThermoFisher Scientific; Waltham, MA) using a MultiDrop dispenser (PerkinElmer; Waltham, MA). The second component dispensed was 10 µL of a 4× stock of RGS4, typically 200 nM to 1.6 µM with the target final concentration of 50 nM to 400 nM, diluted in MGB. After a 30 min incubation, 10 µL of the third component, 4× stock of Gαi diluted in MGB, was dispensed (typically between 4 µM and 80 µM with a desired final concentration 1 µM to 20 µM). After a minimum of 5 min incubation, 10 µL of the fourth component, 4× GTP diluted in MGB, was added at 10 minute intervals from 1–110 minutes. The 0 min time point was excluded due to amount of time required to proceed from GTP addition to quenching with DS. 4× GTP concentrations varied between 0.2 mM and 2.4 mM, with a target final concentration of 50 µM to 600 µM. To terminate the reaction, 10 µL of DS was added to each well using a Microlab Star liquid handling robot (Hamilton Robotics; Reno, NV), to achieve a final ratio 4∶1 (sample:developing solution). Following the spin, the plate was incubated for 25 min before being read at 642 nm for absorbance using an EnVision plate reader (PerkinElmer; Waltham, MA). RGS8 was evaluated similarly to as described for RGS4, with 4× stock concentrations from 20 nM and 800 nM. For each time-course, corresponding GTP only wells were included to account for spontaneous hydrolysis of GTP over time.
(§1) Malachite green compound activity and Z-factor analysis conducted in 384-well plates utilized optimized parameters as discerned from the time-course experiments. 10 µL of 4× compound or MGB was dispensed into appropriate wells. For single point assay, 160 µM compound was used, and for dose-response assays a series of ½ log dilutions from 100 µM final to 316pM final was used. 10 µL of the optimized 4× RGS4 concentration, 0.8 µM in MGB, was dispensed into all wells. After a spin down at 100×g for 1 min, the assay plate was incubated at 25°C for 30 min. 10 µL of the optimized Gαi concentration, 20 µM in MGB, was dispensed to each well and incubated at 25°C for 5 min. 10 µL of the optimized 4× GTP, 600 µM in MGB, was then added to the samples. After spinning the samples down at 100×g for 1 min, the samples were incubated at 25°C for 75 min. The samples were then stamped with 10 µL of DS and incubated for 25 min before reading absorbance at 642 nm.
1536-well Z-factor analysis and compound library screen were accomplished largely as described for 384-well plates. Initial screen and Z-factor determination was performed in a final concentration of 5.5% dimethylsulfoxide. […]

RGS4(Δ7) mutant = RGS4(Δ7) mutant (Rattus norvegicus, UniProt P49799, C132A/C148A/C183A/C197A/C204A/C71A/C95A); assay: Malachite green steady-state GAP assay, cysteine-null RGS4(Δ7) counter screen; format: biochemical
RGS4(Δ7) mutant, sequence (P49799 51-205 C71A/C95A/C132A/C148A/C183A/C197A/C204A limits assumed): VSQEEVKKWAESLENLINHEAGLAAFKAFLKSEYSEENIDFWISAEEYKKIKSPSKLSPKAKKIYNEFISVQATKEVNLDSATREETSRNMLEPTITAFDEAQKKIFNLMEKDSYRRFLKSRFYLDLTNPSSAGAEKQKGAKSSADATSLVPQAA
Source text: Rat RGS4, sharing 97% sequence identity with human RGS4, and the cysteine to alanine mutant were expressed as fusion proteins of maltose binding protein (MBP), a 10× His tag, and a TEV protease recognition site fused to the N-terminus of an RGS4 construct containing amino acids 51–205, in the vector pMALC2H10T in BL21-DE3 E. coli (Stratagene; Santa Clara, CA). The single cysteine-null Δ51-RGS4 construct was generated by site-directed mutagenesis as described previously. Expression and purification were performed as described previously. Purified protein was incubated with TEV protease at a molar ratio of 10∶1(fusion protein:TEV protease) overnight at 4°C. The cleaved Δ51-RGS4 was then isolated by purification over an ANX column (GE Healthcare; Fairfield, CT) in 50 mM HEPES at pH 6.8 and 50 mM NaCl. The flow through, containing the ∼99% Δ51-RGS4 as determined by SDS-PAGE gel, was then collected and concentrated using a YM-10 centrifugal concentrator (Millipore; Billerica, MA). The concentration of Δ51-RGS4 was calculated based on the absorbance at 280 nm utilizing a Take-3 plate (Biotek; Winnoski, VT) in a Synergy 2 plate reader (Biotek; Winnoski, VT).
as §1
Data was analyzed using Prism analysis software (Graphpad Software; La Jolla, CA). Initial malachite green assay optimization was accomplished by comparing the fit of both straight line and hyperbolic functions. The fit that mostly closely resembled the data was used to represent the data. IC50 values for each compound were determined by fitting the data to a sigmoidal curve, which was used to calculate the IC50 value.

[1] = design: method as in PMID 20700722, PMID 21088503; details: rodent models; cited from earlier work
[2] = malachite green assay, RGS4(Δ7) mutant, concentration-response, read-out: IC50 against RGS4(Δ7)

SMILES | IC50 (RGS4(Δ7) mutant; [2]) | IC50 (RGS4(WT)) | IC50 (RGS4(Δ7) mutant) | Inhibition of RGS4 (in words) (RGS4(WT); malachite green assay) | Inhibition of RGS4(Δ7) (in words) (RGS4(Δ7) mutant; malachite green assay) | other results
Cc1ccc(-n2sc(=O)n(Cc3ccc(F)cc3)c2=O)cc1 [CCG-50014, reference compound] | – | – | – | – | – | Mean absorbance at 642 nm, positive control (RGS4(WT); 384-well plate, 192 wells, negative control (buffer) mean 1.74): 0.92; Mean absorbance at 642 nm, positive control (RGS4(WT); 1536-well plate, 5.5% DMSO, 128 wells, negative control (buffer) mean 0.67): 0.30
C[n+]1cc2c3c(ccc2c2ccc4cc5c(cc4c21)OCO5)OCO3 [UI-5, sanguinarium sulfate] | 454 µM | – | – | – | – | IC50 (RGS4(WT); malachite green assay, 200 nM RGS4, concentration-response, read-out: IC50 against RGS4(WT)): 126 µM
CC1=C(O)C(=O)C=C2C1=CC=C1[C@@]2(C)CC[C@@]2(C)[C@@H]3C[C@](C)(C(=O)O)CC[C@]3(C)CC[C@]12C [UI-1590, celastrol] | – | 0.724 µM | 88 µM | – | – | Toxicity in vivo [1]: minor toxicity
CC(C)=CCC[C@]1(C)C=Cc2c(O)c3c(c(CC=C(C)C)c2O1)O[C@]12C(=C[C@@H]4C[C@H]1C(C)(C)O[C@@]2(C/C=C(/C)C(=O)O)C4=O)C3=O [UI-1907, gambogic acid] | – | 16 µM | 51 µM | weak inhibitors | weak inhibitors | –
CC(=O)Oc1c2c(c(CC=C(C)C)c3c1C(=O)C1=C[C@@H]4CC5C(C)(C)OC(C/C=C(\C)C(=O)O)(C4=O)[C@@]15O3)OC(C)(CCC=C(C)C)C=C2 (some centres unmarked) [UI-2034, acetyl-isogambogic acid] | 181 µM | – | – | weak inhibitors | weak inhibitors | –
